Read-outs that look alike come from different tables or passages of the source.
How the values were obtained:
[1] = molecular target: T1, mineralocorticoid receptor (Homo sapiens, UniProt P08235); assay: Antimineralocorticoid action by transactivation test (MDCK reporter cells); assay type: cell-based; parameters: expressed in transfected cells; host or cells: MDCK cells; conditions: for Emax: MDCK, read-out: Mineralocorticoid receptor Antagonism efficacy;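 as to Emax: percent inhibition of the aldosterone-stimulated reporter signal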
T1 sequence (P08235 1-984): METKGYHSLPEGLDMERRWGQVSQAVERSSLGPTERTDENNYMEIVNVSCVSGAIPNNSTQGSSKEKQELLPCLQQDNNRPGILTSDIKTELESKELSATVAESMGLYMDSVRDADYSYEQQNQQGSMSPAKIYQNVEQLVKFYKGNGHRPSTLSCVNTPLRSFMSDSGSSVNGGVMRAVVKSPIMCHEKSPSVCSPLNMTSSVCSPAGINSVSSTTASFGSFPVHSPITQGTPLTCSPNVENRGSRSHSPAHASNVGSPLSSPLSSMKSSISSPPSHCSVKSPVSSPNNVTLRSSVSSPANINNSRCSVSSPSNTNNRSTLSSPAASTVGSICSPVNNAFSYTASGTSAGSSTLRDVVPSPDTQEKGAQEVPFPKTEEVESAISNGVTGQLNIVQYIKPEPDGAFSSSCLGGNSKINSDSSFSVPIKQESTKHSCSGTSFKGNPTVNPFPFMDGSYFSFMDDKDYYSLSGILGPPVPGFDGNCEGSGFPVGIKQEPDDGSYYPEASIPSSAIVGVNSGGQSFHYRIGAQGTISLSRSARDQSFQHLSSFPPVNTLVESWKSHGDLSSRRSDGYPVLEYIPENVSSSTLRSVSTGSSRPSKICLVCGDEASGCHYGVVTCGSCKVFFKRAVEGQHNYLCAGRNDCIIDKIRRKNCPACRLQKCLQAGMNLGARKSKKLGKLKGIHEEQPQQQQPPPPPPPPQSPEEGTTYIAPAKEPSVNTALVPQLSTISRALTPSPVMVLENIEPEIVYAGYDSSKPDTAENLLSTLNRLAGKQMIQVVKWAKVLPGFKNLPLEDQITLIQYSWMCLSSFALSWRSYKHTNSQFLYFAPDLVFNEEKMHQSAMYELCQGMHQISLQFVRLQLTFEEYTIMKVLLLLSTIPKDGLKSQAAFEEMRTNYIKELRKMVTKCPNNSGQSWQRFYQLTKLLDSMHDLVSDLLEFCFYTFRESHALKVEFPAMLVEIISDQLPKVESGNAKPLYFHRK
Procedure, shortened: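 MDCK reporter cells expressing human mineralocorticoid receptor, transiently carrying luciferase under a steroid hormone-responsive promoter.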

androgen receptor [2] = molecular target: T2, androgen receptor (Homo sapiens, UniProt P10275); assay: Androgenic/antiandrogenic action by transactivation test (PC3 reporter cells); assay type: cell-based; parameters: expressed in transfected cells; host or cells: PC3 cells
T2 sequence (P10275 1-920): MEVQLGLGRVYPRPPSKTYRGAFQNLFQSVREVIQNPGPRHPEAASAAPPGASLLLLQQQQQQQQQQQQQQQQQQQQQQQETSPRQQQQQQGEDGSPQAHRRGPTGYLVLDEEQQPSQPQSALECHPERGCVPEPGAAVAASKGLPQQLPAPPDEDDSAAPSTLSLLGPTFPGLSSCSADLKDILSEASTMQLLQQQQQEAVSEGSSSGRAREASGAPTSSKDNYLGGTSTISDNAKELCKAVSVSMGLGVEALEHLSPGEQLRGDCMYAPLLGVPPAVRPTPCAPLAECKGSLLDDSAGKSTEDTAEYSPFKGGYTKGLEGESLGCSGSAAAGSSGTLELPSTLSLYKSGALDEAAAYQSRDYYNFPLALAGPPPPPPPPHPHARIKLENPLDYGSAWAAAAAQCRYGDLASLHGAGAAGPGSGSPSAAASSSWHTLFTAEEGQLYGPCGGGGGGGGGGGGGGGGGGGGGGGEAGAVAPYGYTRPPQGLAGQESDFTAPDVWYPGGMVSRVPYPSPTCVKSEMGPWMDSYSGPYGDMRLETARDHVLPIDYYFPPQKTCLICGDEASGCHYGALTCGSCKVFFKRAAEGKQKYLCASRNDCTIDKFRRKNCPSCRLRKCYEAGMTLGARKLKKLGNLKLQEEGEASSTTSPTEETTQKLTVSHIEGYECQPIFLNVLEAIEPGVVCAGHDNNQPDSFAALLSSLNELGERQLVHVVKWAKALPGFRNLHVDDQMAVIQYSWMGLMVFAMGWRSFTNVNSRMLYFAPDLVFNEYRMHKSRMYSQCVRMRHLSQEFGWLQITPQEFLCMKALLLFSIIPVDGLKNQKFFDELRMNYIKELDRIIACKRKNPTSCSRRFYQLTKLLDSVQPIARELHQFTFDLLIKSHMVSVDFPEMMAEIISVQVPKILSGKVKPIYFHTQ
Protocol: The test compounds were added eight hours later, and the cells were incubated with the compounds for 16 hours. The tests were carried out in triplicate. At the end of incubation the medium containing the effector was removed and replaced with lysis buffer. After luciferase assay substrate (Promega, #E1501) had been added, the 96-well plates were then put in a microplate luminometer (Pherastar, BMG Labtech), and the luminescence was measured. The IC50 values were evaluated using software for calculating dose-effect relations.
6. Determination of Androgenic/Antiandrogenic Action by Means of Transactivation Tests:
The androgenic/antiandrogenic action of the test substances was determined as for the transactivation tests described above.
The following modifications were made: In this case reporter cell lines were used (PC3 cells) that express the androgen receptor, and a reporter construct that contains luciferase under the control of a steroid hormone-responsive promoter.
For determination of the antiandrogenic efficacy, 0.05 nM R1881 was added to the cells, in order to achieve almost maximum stimulation of the reporter gene.

androgen receptor [3] = molecular target: T2, androgen receptor; assay: Androgen receptor binding test; parameters: expressed in transfected cells; conditions: reference substance 3H-testosterone
[4] = PC-3, read-out: Androgen receptor Agonism efficacy
[5] = PC-3, read-out: Androgen receptor Antagonism efficacy

C=C[C@@H]1CC2=CC(=O)CC[C@@H]2[C@H]2CC[C@@]3(C)[C@@H]([C@@H]4C[C@@H]4[C@@]34C=CC(=O)O4)[C@@H]21 [Example 25A, 17β-Hydroxy-15β,16β-methylene-7α-vinyl-19-nor-17α-pregna-4,20(Z)-dien-3-one-21-carboxylic acid γ-lactone]
IC50 [1]: 910 nM
Emax [1]: 84.1%
EC50 (androgen receptor [2]): 1.83 nM
Emax (androgen receptor [2]; [4]): 73.3%
Emax (androgen receptor [2]; [5]): 5%
Androgen receptor Competition factor (androgen receptor [3]): 1.4

C[C@]12CC[C@H]3[C@@H](CCC4=C(Cl)C(=O)CC[C@@H]43)[C@@H]1[C@@H]1C[C@@H]1[C@@]21C=CC(=O)O1 [Example 27, 4-Chloro-17β-hydroxy-15β,16β-methylene-19-nor-17α-pregna-4,20(Z)-dien-3-one-21-carboxylic acid γ-lactone]
IC50 [1]: 1000 nM
Emax [1]: 5%
EC50 (androgen receptor [2]): 69.5 nM
Emax (androgen receptor [2]; [4]): 66.9%
Emax (androgen receptor [2]; [5]): 5%
Androgen receptor Competition factor (androgen receptor [3]): 36.4

Reference: patent publication US20110015162A1, “15,16-Methylene-17-hydroxy-19-nor-21-carboxylic acid-steroid Y-lactone derivative, use thereof and medicinal products containing the derivative” (Bayer Schering Pharma Aktiengesellschaft, priority 2007, published 2011)
